The results in this text go back to patent US8754216B2, “NK1 antagonists” (OPKO Health, Inc., priority 2004, dated 2014).

By Ki is commonly meant the equilibrium dissociation constant of an inhibitor or competing ligand from its target.

Sequence of NK1 receptor (P25103 whole entry, species assumed): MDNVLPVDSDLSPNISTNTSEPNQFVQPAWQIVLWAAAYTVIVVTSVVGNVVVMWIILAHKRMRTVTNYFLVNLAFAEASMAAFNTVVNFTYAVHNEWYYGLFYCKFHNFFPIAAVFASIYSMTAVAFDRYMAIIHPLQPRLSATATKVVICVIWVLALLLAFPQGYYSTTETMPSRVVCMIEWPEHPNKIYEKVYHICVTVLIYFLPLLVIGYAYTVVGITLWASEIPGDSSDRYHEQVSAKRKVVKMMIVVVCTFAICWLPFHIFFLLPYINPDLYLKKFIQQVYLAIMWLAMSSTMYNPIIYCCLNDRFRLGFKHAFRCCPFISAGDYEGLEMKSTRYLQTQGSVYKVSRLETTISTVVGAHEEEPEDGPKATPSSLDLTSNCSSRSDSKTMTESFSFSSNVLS

In the experiment the target is NK1 receptor (Homo sapiens, UniProt P25103). The experiment can be described thus: NK1 receptor binding: inhibition of Substance P binding, Ki by Chang-Prusoff equation. The conditions noted are these: affinity for the NK1 receptor. An excerpt: The in vitro and in vivo NK1, NK2 and NK3 activities of the compounds of Formula I can be determined by various procedures known in the art, such as a test for their ability to inhibit the activity of the NK1 agonist Substance P. The percent inhibition of neurokinin agonist activity is the difference between the percent of maximum specific binding (“MSB”) and 100%. The percent of MSB is defined by the following equation, wherein “dpm” represents “disintegrations per minute”:
[formula] The concentration at which the compound produces 50% inhibition of binding is then used to determine an inhibition constant (“Ki”) using the Chang-Prusoff equation.
The activities (potencies) for the compounds of the invention are determined by measuring their Ki values. […] Even more preferred are compounds having average Ki values of from 0.1 nM to about 5 nM for the NK1 receptor. Especially preferred compounds have […], average Ki values of from 0.1 nM to about 1 nM. Even more especially preferred compounds have NK1 average Ki values of from 0.1 nM to about 0.3 nM.
In the case of `CCNC(=O)C[C@]1(n2cn[nH]c2=O)CC[C@@](CO[C@H](C)c2cc(C(F)(F)F)cc(C(F)(F)F)c2)(c2ccccc2)NC1` [Compound 16], the Ki was 0.13 nM.
To `C[C@@H](OC[C@@]1(c2ccccc2)CC[C@](CC(N)=O)(n2cn[nH]c2=O)CN1)c1cc(C(F)(F)F)cc(C(F)(F)F)c1` [Compound 29] belongs 0.11 nM; to `C[C@@H](OC[C@@]1(c2ccccc2)CC[C@](CO)(n2cn[nH]c2=O)CN1)c1cc(C(F)(F)F)cc(C(F)(F)F)c1` [Compound 23], 0.12 nM.
To `C[C@@H](OC[C@@]1(c2ccccc2)CC[C@](C#N)(n2cn[nH]c2=O)CN1)c1cc(C(F)(F)F)cc(C(F)(F)F)c1` [Compound 42] belongs 0.28 nM.
To `CCC(=O)[C@]1(n2cn[nH]c2=O)CC[C@@](CO[C@H](C)c2cc(C(F)(F)F)cc(C(F)(F)F)c2)(c2ccccc2)NC1` [Compound 19] belongs 0.1 nM; to `C[C@@H](OC[C@@]1(c2ccccc2)CC[C@](C#N)(N2CCC2=O)CN1)c1cc(C(F)(F)F)cc(C(F)(F)F)c1` [Compound 9], 0.18 nM.
In turn, `COC[C@]1(N2CC(=O)NC2=O)CC[C@@](CO[C@H](C)c2cc(C(F)(F)F)cc(C(F)(F)F)c2)(c2ccccc2)NC1` [Compound 20] gave an inhibitory constant (Ki) of 0.11 nM.
For the compound `COC[C@@]1(n2cnnc2)CC[C@@](CO[C@H](C)c2cc(C(F)(F)F)cc(C(F)(F)F)c2)(c2ccccc2)NC1` [Compound 14], affinity was put at a Ki of 0.1 nM.
To `C[C@@H](OC[C@@]1(c2ccccc2)CC[C@@](C(N)=O)(n2cnnc2)CN1)c1cc(C(F)(F)F)cc(C(F)(F)F)c1` [Compound 10] belongs 0.1 nM.
To `C[C@@H](OC[C@@]1(c2ccccc2)CC[C@@](CO)(n2cnnc2)CN1)c1cc(C(F)(F)F)cc(C(F)(F)F)c1` [Compound 12] belongs 0.05 nM.
To `C/C(=N\O)[C@]1(n2cn[nH]c2=O)CC[C@@](CO[C@H](C)c2cc(C(F)(F)F)cc(C(F)(F)F)c2)(c2ccccc2)NC1` [Compound 54] belongs 0.12 nM; to `C[C@@H](OC[C@@]1(c2ccccc2)CC[C@](C#N)(N2CCOC2=O)CN1)c1cc(C(F)(F)F)cc(C(F)(F)F)c1` [Compound 2], 0.12 nM; to `CC(=O)C[C@]1(n2cn[nH]c2=O)CC[C@@](CO[C@H](C)c2cc(C(F)(F)F)cc(C(F)(F)F)c2)(c2ccccc2)NC1` [Compound 30], 0.54 nM.
